Here are results for two molecules from US20070098648A1, “Treating mouth sores caused by dental braces with blobs of hydrophilic gums” (priority 2002, published 2007).

For series [1], the system named is mouth sores. Description: experimentation with amoxicillin on conventional patches. It is filed as in vivo. The following applies: conventional amoxicillin powder for oral suspension, mixed into the patch and dried. From the text:
Because use of antibiotics, antibacterials, and other pharmaceutical antimicrobials causes adverse side affects, experimentation with these medications has been limited. […] Conventional amoxicillin powder for preparation of oral suspension was used, which includes sugars and other excipients. The sugars act as a binder to the oral patch. The oral suspension is mixed into the patch or blob and dried. Preferably, the amoxicillin powder is mixed into a stronger than normal liquid before being added to the patch or blob.

A short description of series [2]: side effects of glycyrrhetinic acid in the quantities a person could use per day. It is filed as in vivo, human. The following applies: in the quantities that a person could use per day. The source says:
For medication to be placed in the patch or blob, any of the above-mentioned antimicrobials, or similar antimicrobials, may be used. […] The preferred quantity of glycyrrhetinic acid in each patch or blob is 5 to 7%.

With `CC1(C)S[C@@H]2[C@H](NC(=O)[C@H](N)c3ccc(O)cc3)C(=O)N2[C@H]1C(=O)O` [amoxicillin], the “effect of amoxicillin on conventional patches” value in series [1] is reported as “works quite well”. For the molecule `CC1(C)[C@@H](O)CC[C@]2(C)[C@H]3C(=O)C=C4[C@@H]5C[C@@](C)(C(=O)O)CC[C@]5(C)CC[C@@]4(C)[C@]3(C)CC[C@@H]12` [glycyrrhetinic acid], the side effects entry in series [2] is “no side affects have been discovered”.
